# Reference: patent US5929099A, “Pharmaceutical composition for inhibiting the growth of cancers” (Procter & Gamble Co., priority 1996, dated 1999)
# Where two headings read alike, the source gives them in different places.
# Assays:
# HIV-1 = assay: HIV chronic study, therapeutic index
# Protocol: Chronic HIV-1 infected cells U1 were derived from an acute HIV-1 infection of the promonocytic cell line, U937. The chronic HIV-1 infected cells, ACH-2 were derived from an acute HIV-1 infection of the T cell line, A3.01.
# These cells were cultured in medium and the phorbol ester, PMA. […] Cell viability was measured when these cell lines were treated with the test compounds.
# In addition, the number of institute positive HIV mRNA expressing cells per microscopic field is measured. Comparisons can be made from these numbers since the same number of cells were adhered to the glass slides for each drug concentration (10×10^6 cells/ml).
# [1] = test system: HIV-1 in chronic infected U1 cells (HIV monocytes); assay: HIV chronic study, monocyte HIV replication; assay type: cell-based; conditions: Human immunodeficiency virus 1, Monocyte; 1 μg/ml; positive control; read-out: suppressed HIV monocytes replication
# Protocol: (§1) These cells were treated with test samples.
# [2] = test system: HIV-1 in chronic infected ACH-2 cells (T-cell); assay: HIV chronic study, T-cell HIV replication; assay type: cell-based; conditions: Human immunodeficiency virus 1, ACH-2; positive control AZT (1 μg/ml); read-out: suppressed T-cell HIV replication
# Protocol: as §1
# HIV = assay: In vitro acute model for HIV, viral replication; assay type: cell-based; conditions: Human immunodeficiency virus 1, 1 μg/ml, read-out: inhibited viral replication
# Protocol: In an in vitro acute model for HIV carbendazim inhibited viral replication by 100% at 4 μg/ml and AZT inhibited viral replication by 98% at 1 μg/ml. Thiabendazole inhibited viral replication by 98% at 60 μg/ml.
# [3] = test system: colon, breast and lung human tumor cells; assay: Colon, breast and lung tumor cells test, overall comparison; assay type: cell-based; conditions: positive control, in all cases
# Protocol: (§2) The following cell culture tests were performed to test the toxicity of the benzimidazole compounds on colon, breast and lung human tumor cells. The viability of the cells were tested by looking at MTT (3-[4,5-dimethylthiazol-2-yl]-2,5-diphenyltetrazolium bromide) reduction. MTT assay is a well known measure of cell viability.
# (§3) The colon tumor cells (HT29 from American Type Culture Collection (ATCC)) and the breast cells (MX1 from cell lines from ATCC) were cultured in Eagle's Miminal Essential Medium with 10% fetal bovine serum. The lung tumor cells (A549 from ATCC cell lines) were cultured in Ham's F12 medium with 10% fetal bovine serum.
# The tumor cells were passaged and seeded into culture flasks at the desired cell densities. The culture medium was decanted and the cell sheets were washed twice with phosphate buffered saline (PBS). The cells were trypsinized and triturated prior to seeding the flasks. […]
# The cells were subcultured when the flasks were subconfluent. […] The concentration of cells in the suspension was determined, and an appropriate dilution was made to obtain a density of 5000 cells/ml. […]
# (§4) The absorbance at 550 mn (OD550) of each well was measured with a Molecular Devices (Menlo Park, Calif.) VMax plate reader.
# The mean OD550 of the solvent control wells and that of each test article dilution, and that of each of the blank wells and the positive control were calculated. […]
# A549 lung tumor cells = assay: MTT cell viability, lung tumor cells (Table 1); assay type: cell-based; conditions: Homo sapiens, A549, 120 h, approx. 5 days, read-out: EC-50 Result
# Protocol: as §2, §3
# (§5) The tumor cells were passaged and seeded into culture flasks at the desired cell densities. The culture medium was decanted and the cell sheets were washed twice with phosphate buffered saline (PBS). The cells were trypsinized and triturated prior to seeding the flasks. Unless otherwise indicated the cultures were incubated at 37±1° C. in a humidified atmosphere of 5±1% carbon dioxide in air. The cultures were incubated until they were 50-80% confluent.
# (§6) The cells were subcultured when the flasks were subconfluent. The medium was aspirated from the flasks and the cell sheets rinsed twice with PBS. Next, the Trypsin Solution was added to each flask to cover the cell sheet. The Trypsin Solution was removed after 30-60 seconds and the flasks were incubated at room temperature for two to six minutes. When 90% of the cells became dislodged, growth medium was added. The cells were removed by trituration and transferred to a sterile centrifuge tube. The concentration of cells in the suspension was determined, and an appropriate dilution was made to obtain a density of 5000 cells/ml. The cells were subcultured into the designated wells of the 96-well bioassay plates (200 microliter cell suspension per well). PBS was added to all the remaining wells to maintain humidity. The plates were then incubated overnight before test article treatment.
# (§7) Each dose of test article was tested by treating quadruplicate wells of cultures with 100 microliter of each dilution. Those wells designated as solvent controls received an additional 100 microliter of methanol control; negative controls wells received an additional 100 microliters of treatment medium. PBS was added to the remaining wells not treated with test article or medium. The plates were then incubated for approximately 5 days.
# (§8) At the end of the 5 day incubation, each dose group was examined microscopically to assess toxicity. A 0.5 mg/ml dilution of MTT was made in treatment medium, and the dilution was filtered through a 0.45 micrometer filter to remove undissolved crystals. The medium was decanted from the wells of the bioassy plates. Immediately thereafter, […] of the filtered MTT solution was added to all test wells except for the two untreated blank test wells. The two blank wells received 200 microliters of treatment medium. The plates were returned to the incubator for about 3 hours. After incubation, the MTT containing medium was decanted. […] was added to each well and the plates were shaken at room temperature for about 2 hours.
# as §4
# (§9) The mean OD550 of the solvent control wells and that of each test article dilution, and that of each of the blank wells and the positive control were calculated. The mean OD550 of the blank wells was subtracted from the mean of the solvent control wells, and test article wells, respectively to give the corresponding mean OD550. [formula]
# (§10) Dose response curves were prepared as semi-log plots with % of control on the ordinate (linear) and the test article concentration on the abscissa (logarithmic). The EC50 was interpolated from the plots for each test article.
# (§11) For the test articles administered in methanol, separate responses were prepared to correct for the methanol data. […]
# [4] = Toxicity to normal healthy cells (Table 2); assay type: cell-based; conditions: read-out: EC-50 (the source's name)
# Source text: The EC50 is the concentration at which one half of the cells are killed.
# In normal healthy cells, the following results were obtained.
# MX1 breast tumor cells = assay: MTT cell viability, breast tumor cells (Table 1); assay type: cell-based; conditions: Homo sapiens, 120 h, approx. 5 days, read-out: EC-50 Result
# Protocol: as §2, §3, §5, §6, §7, §8, §4, §9, §10, §11
# HT29 colon tumor cells = assay: MTT cell viability, colon tumor cells (Table 1); assay type: cell-based; conditions: Homo sapiens, HT-29, 120 h, approx. 5 days, read-out: EC-50 Result
# Protocol: as §2, §3, §5, §6, §7, §8, §4, §9, §10, §11
# melanoma = assay: In vivo mouse model for melanoma, combination with Navelbine, survival time
structure (smiles),measurement,setting,value
Cc1cn([C@H]2C[C@H](N=[N+]=[N-])[C@@H](CO)O2)c(=O)[nH]c1=O [AZT],"therapeutic index (TI), the ratio of the toxic dose of drug to efficacious dose of drug",HIV-1,"12, 500"
same,inhibition at 1 µg/mL,[1],98%
same,inhibition at 1 µg/mL,[2],60%
same,inhibition at 1 µg/mL,HIV,98%
COc1cccc2c1C(=O)c1c(O)c3c(c(O)c1C2=O)C[C@@](O)(C(=O)CO)C[C@@H]3O[C@H]1C[C@H](N)[C@H](O)[C@H](C)O1 [Adriamycin],toxicity relative to the test materials,[3],more toxic than any of the test materials by one or two logs
same,IC50,"A549 lung tumor cells; A549, first column",0.03 µg/mL
same,IC50,"A549 lung tumor cells; A549, second column",0.009 µg/mL
same,CC50,"[4]; bronchial cells, Broncheal Cells, first value",0.015 µg/mL
same,CC50,"[4]; bronchial cells, Broncheal Cells, second value",0.002 µg/mL
same,CC50,"[4]; fibroblasts, first value",0.065 µg/mL
same,CC50,"[4]; fibroblasts, second value",0.1 µg/mL
same,CC50,"[4]; kerotinoyle cells, first value",0.0035 µg/mL
same,CC50,"[4]; kerotinoyle cells, second value",0.0093 µg/mL
same,IC50,"MX1 breast tumor cells; MX1, first column",0.02 µg/mL
same,IC50,"MX1 breast tumor cells; MX1, second column",0.001 µg/mL
same,IC50,"HT29 colon tumor cells; HT29, first column",0.03 µg/mL
same,IC50,"HT29 colon tumor cells; HT29, second column",0.006 µg/mL
CCC1=C[C@@H]2CN(C1)Cc1c([nH]c3ccccc13)[C@@](C(=O)OC)(c1cc3c(cc1OC)N(C)[C@H]1[C@@](O)(C(=O)OC)[C@H](OC(C)=O)[C@]4(CC)C=CCN5CC[C@]31[C@@H]54)C2 [Navelbine],% increase in survival time vs. untreated mice,melanoma; Navelbine alone 0.5 mg/kg,190%
same,% increase in survival time vs. untreated mice,melanoma; Navelbine alone 1.0 mg/kg,245%
same,% increase in survival time vs. untreated mice,melanoma; Navelbine alone 2.0 mg/kg,265%
